Experiments:
AtCLCa [1] = biological target: T1, AtCLCa (Arabidopsis thaliana, UniProt P92941); experiment: whole-cell patch clamp, HEK293T; assay type: cell-based; parameters: gene CLC-A; full-length, homodimer; patch clamp: pKH3 vector in HEK293T; settings: 5 mM in pipette (cytosolic side); nitrate bath; pH 7.4
T1 sequence (P92941 1-775): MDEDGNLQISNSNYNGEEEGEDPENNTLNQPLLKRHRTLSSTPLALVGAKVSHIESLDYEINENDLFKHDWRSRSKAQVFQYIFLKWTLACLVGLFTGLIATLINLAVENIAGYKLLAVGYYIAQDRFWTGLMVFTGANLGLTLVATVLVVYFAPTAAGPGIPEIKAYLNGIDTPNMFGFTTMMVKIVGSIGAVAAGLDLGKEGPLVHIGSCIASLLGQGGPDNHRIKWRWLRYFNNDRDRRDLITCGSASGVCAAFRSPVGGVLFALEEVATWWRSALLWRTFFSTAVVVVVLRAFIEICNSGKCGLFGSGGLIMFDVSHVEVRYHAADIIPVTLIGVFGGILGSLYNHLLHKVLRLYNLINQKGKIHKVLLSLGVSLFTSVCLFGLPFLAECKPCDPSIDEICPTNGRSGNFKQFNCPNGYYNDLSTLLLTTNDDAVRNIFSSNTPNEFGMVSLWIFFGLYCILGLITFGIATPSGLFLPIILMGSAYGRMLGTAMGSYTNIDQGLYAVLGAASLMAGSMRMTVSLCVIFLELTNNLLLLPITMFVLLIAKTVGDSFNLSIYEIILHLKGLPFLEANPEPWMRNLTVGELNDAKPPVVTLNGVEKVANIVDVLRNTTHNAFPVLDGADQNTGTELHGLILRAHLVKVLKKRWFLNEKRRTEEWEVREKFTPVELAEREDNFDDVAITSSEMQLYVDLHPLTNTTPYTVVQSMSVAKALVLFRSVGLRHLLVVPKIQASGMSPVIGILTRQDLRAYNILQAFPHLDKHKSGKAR

AtCLCa [2] = biological target: T1, AtCLCa; experiment: cryo-EM structure, […] Å; assay type: binding; parameters: gene CLC-A; full-length, homodimer; structures: Pichia pastoris GS115, C-terminal GFP-6xHis tag cut by TEV, MSP1D1 nanodiscs; patch clamp: pKH3 vector in HEK293T; settings: Scen and Sint sites; 150 mM NaNO3, pH 8.0
AtCLCa [3] = biological target: T1, AtCLCa; experiment: whole-cell patch clamp, HEK293T; assay type: cell-based; parameters: gene CLC-A; full-length, homodimer; patch clamp: pKH3 vector in HEK293T; settings: pipette (cytosolic side); pH 7.4
[4] = biological target: the molecule itself; experiment: cryo-EM structure; AtCLCa in MSP1D1 nanodiscs with soybean polar lipid; 20 mM Tris pH 8.0 with 150 mM NaCl (AtCLCa-Cl-) or 150 mM NaNO3 (AtCLCa-NO3-); C2 symmetry applied

With `Nc1ncnc2c1ncn2[C@@H]1O[C@H](COP(=O)(O)OP(=O)(O)O)[C@@H](O)[C@H]1O` [ADP] the “inhibition of NO3^- currents at 5 mM” value (AtCLCa [1]) was “ADP produced a weak inhibition while AMP induced a negligible inhibition”.

In the case of `O=[N+]([O-])O` [NO3^−], the “cryo-EM structure, 3.2 Å” value (AtCLCa [2]) is reported as “Scen and Sint were found of fair densities, which likely corresponds to the bound NO3^−”.

`Nc1ncnc2c1ncn2[C@@H]1O[C@H](COP(=O)(O)O)[C@@H](O)[C@H]1O` [AMP] was tested, and the “inhibition of NO3^- currents at 5 mM” value (AtCLCa [1]) was “ADP produced a weak inhibition while AMP induced a negligible inhibition”.

`Nc1ncnc2c1ncn2[C@@H]1O[C@H](COP(=O)(O)OP(=O)(O)OP(O)(O)=S)[C@@H](O)[C@H]1O` [ATP-γ-S] was tested, and the inhibition of currents (AtCLCa [3]) was “ATP-γ-S induced an inhibition comparable with ATP”.

B1: Arabidopsis thaliana CLCa (AtCLCa) transporter (natural protein, UniProt P92941 1-775, looked up)
chain: T1 sequence (P92941 1-775)
notes: Arabidopsis thaliana CLCa, Uniprot P92941, full-length gene; C-terminal GFP-6xHis tag was fused by a short linker with a TEV protease site and cut off with TEV; residues of the linker may be left; also called AtCLCa-Cl-; AtCLCa-NO3-; source: Pichia pastoris GS115, purified (anti-GFP nanobody resin, TEV digestion, SEC), reconstituted into MSP1D1 nanodiscs; not shown: GFP, C-terminal, cleaved; …
B1 was tested, and the “stoichiometry N” value [4] was 2.
